Laboratory results as given in publication PMC10994559 (PLOS Neglected Tropical Diseases, 2024).
Read-outs that look alike come from different tables or passages of the source.

Assays:
T. brucei brucei BSF [1] = test: T. brucei BSF viability, resazurin reduction; format: cell-based, Trypanosoma brucei brucei
T. brucei brucei BSF [2] = test system: T. brucei brucei BSF; set-up: method as in PMID 29425238; details: read-out: reported EC50 T. brucei; cited from earlier work

## NCc1ccc(Oc2ccc3c(c2)COB3O)cc1 [AN3057, reference compound]
T. brucei brucei BSF [1]; BSF, 72 h
  Residual viability, T.brucei (2.5 µM): 0.3%
T. brucei brucei BSF [1]; BSF, 72 h, listed as An3057, 2.5 µM
  Residual viability, T.brucei (2.5 µM): 0.32±0.58%
T. brucei brucei BSF [1]; BSF, 25 µM, 72 h
  Residual viability, T.brucei (25 µM): -2.85±1.48%
T. brucei brucei BSF [1]; dose response, triplicate, ± SD (Table 2) / ± SE (S3 Table), read-out: EC50 T. brucei BSF
  EC50: 5 ± 2 nM
T. brucei brucei BSF [2]
  EC50: 5.2 nM
